Experimental data reported in PubChem BioAssay (NCI).
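Briefly, cells in 96-well plates were exposed to five compound concentrations for 48 h, and endpoints were estimated by linear interpolation. The concentration for full growth arrest is given as TGI.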

Columns and labels:
Assay in all cases: DTP human tumour cell line panel, 48 h
786-0 renal = tested on: 786-0 renal
A498 renal = tested on: A498 renal
A549 NSCLC = tested on: A549 NSCLC
ACHN renal = tested on: ACHN renal
BT-549 breast = tested on: BT-549 breast
CAKI-1 renal = tested on: CAKI-1 renal
CCRF-CEM leukemia = tested on: CCRF-CEM leukemia
COLO 205 colon = tested on: COLO 205 colon
DU-145 prostate = tested on: DU-145 prostate
EKVX NSCLC = tested on: EKVX NSCLC
HCC-2998 colon = tested on: HCC-2998 colon
HCT-116 colon = tested on: HCT-116 colon
HCT-15 colon = tested on: HCT-15 colon
HL-60(TB) leukemia = tested on: HL-60(TB) leukemia
HOP-62 NSCLC = tested on: HOP-62 NSCLC
HOP-92 NSCLC = tested on: HOP-92 NSCLC
HS 578T breast = tested on: HS 578T breast
HT29 colon = tested on: HT29 colon
IGROV1 ovarian = tested on: IGROV1 ovarian
KM12 colon = tested on: KM12 colon
LOX IMVI melanoma = tested on: LOX IMVI melanoma
M14 melanoma = tested on: M14 melanoma
MALME-3M melanoma = tested on: MALME-3M melanoma
MCF7 breast = tested on: MCF7 breast
MDA-MB-231 breast = tested on: MDA-MB-231 breast
MDA-MB-435 = tested on: MDA-MB-435
MDA-N = tested on: MDA-N
MOLT-4 leukemia = tested on: MOLT-4 leukemia
NCI-H226 lung = tested on: NCI-H226 lung
NCI-H23 lung = tested on: NCI-H23 lung
NCI-H460 lung = tested on: NCI-H460 lung
NCI-H522 lung = tested on: NCI-H522 lung
NCI/ADR-RES ovarian = tested on: NCI/ADR-RES ovarian
OVCAR-3 ovarian = tested on: OVCAR-3 ovarian
OVCAR-4 ovarian = tested on: OVCAR-4 ovarian
OVCAR-5 ovarian = tested on: OVCAR-5 ovarian
OVCAR-8 ovarian = tested on: OVCAR-8 ovarian
PC-3 prostate = tested on: PC-3 prostate
RXF 393 renal = tested on: RXF 393 renal
SF-268 CNS = tested on: SF-268 CNS
SF-295 CNS = tested on: SF-295 CNS
SF-539 CNS = tested on: SF-539 CNS
SK-MEL-2 melanoma = tested on: SK-MEL-2 melanoma
SK-MEL-28 melanoma = tested on: SK-MEL-28 melanoma
SK-MEL-5 melanoma = tested on: SK-MEL-5 melanoma
SK-OV-3 ovarian = tested on: SK-OV-3 ovarian
SN12C renal = tested on: SN12C renal
SNB-19 CNS = tested on: SNB-19 CNS
SNB-75 CNS = tested on: SNB-75 CNS
SR leukemia = tested on: SR leukemia
SW-620 colon = tested on: SW-620 colon
T-47D breast = tested on: T-47D breast
TK-10 renal = tested on: TK-10 renal
U251 CNS = tested on: U251 CNS
UACC-257 melanoma = tested on: UACC-257 melanoma
UACC-62 melanoma = tested on: UACC-62 melanoma
UO-31 renal = tested on: UO-31 renal
K-562 leukemia = tested on: K-562 leukemia
RPMI-8226 leukemia = tested on: RPMI-8226 leukemia

CCC(O)CC1OC2(CCC1C)CC1OC(=O)/C=C\C(C)(O)C(O)C(C)C(O)C(OC3CC(OC)C(O)C(C)O3)C(O)C(C)(O)CCC/C=C/C3CC(C)COC3(O)CC(O2)C1C (configuration not stated)
TGI (786-0 renal): > 89.4 µM | TGI (A498 renal): > 100 µM | TGI (A549 NSCLC): > 100 µM | TGI (ACHN renal): 50.9 µM | TGI (BT-549 breast): 41.2 µM | TGI (CAKI-1 renal): 33.3 µM | TGI (CCRF-CEM leukemia): > 60.5 µM | TGI (COLO 205 colon): 17.2 µM | TGI (DU-145 prostate): > 100 µM | TGI (EKVX NSCLC): 26 µM | TGI (HCC-2998 colon): 62.3 µM | TGI (HCT-116 colon): 29.5 µM | TGI (HCT-15 colon): 56.8 µM | TGI (HL-60(TB) leukemia): 10.6 µM | TGI (HOP-62 NSCLC): 35.7 µM | TGI (HOP-92 NSCLC): > 100 µM | TGI (HS 578T breast): 38.2 µM | TGI (HT29 colon): 35.1 µM | TGI (IGROV1 ovarian): 47.1 µM | TGI (KM12 colon): 16.8 µM | TGI (LOX IMVI melanoma): 36.7 µM | TGI (M14 melanoma): 22 µM | TGI (MALME-3M melanoma): 35.5 µM | TGI (MCF7 breast): 30.2 µM | TGI (MDA-MB-231 breast): > 77.9 µM | TGI (MDA-MB-435): 25.4 µM | TGI (MDA-N): 23.8 µM | TGI (MOLT-4 leukemia): 7.84 µM | TGI (NCI-H226 lung): 27.3 µM | TGI (NCI-H23 lung): 71 µM | TGI (NCI-H460 lung): > 75.2 µM | TGI (NCI-H522 lung): 16.3 µM | TGI (NCI/ADR-RES ovarian): 45.1 µM | TGI (OVCAR-3 ovarian): 27.2 µM | TGI (OVCAR-4 ovarian): 48.6 µM | TGI (OVCAR-5 ovarian): 53 µM | TGI (OVCAR-8 ovarian): 24.6 µM | TGI (PC-3 prostate): 20.4 µM | TGI (RXF 393 renal): > 100 µM | TGI (SF-268 CNS): 90.1 µM | TGI (SF-295 CNS): > 41.8 µM | TGI (SF-539 CNS): 44.9 µM | TGI (SK-MEL-2 melanoma): 29.6 µM | TGI (SK-MEL-28 melanoma): 54.6 µM | TGI (SK-MEL-5 melanoma): 8.9 µM | TGI (SK-OV-3 ovarian): > 100 µM | TGI (SN12C renal): > 77.3 µM | TGI (SNB-19 CNS): > 100 µM | TGI (SNB-75 CNS): 27.3 µM | TGI (SR leukemia): > 80.7 µM | TGI (SW-620 colon): > 100 µM | TGI (T-47D breast): 23.6 µM | TGI (TK-10 renal): 37 µM | TGI (U251 CNS): > 100 µM | TGI (UACC-257 melanoma): 15.4 µM | TGI (UACC-62 melanoma): 32.2 µM | TGI (UO-31 renal): 68.7 µM

C/C(=N\NC(=S)Nc1ccccc1)c1nc2ncccc2[nH]1
TGI (786-0 renal): 74 µM | TGI (A498 renal): 33.1 µM | TGI (A549 NSCLC): > 100 µM | TGI (ACHN renal): 47.8 µM | TGI (BT-549 breast): 26.2 µM | TGI (CAKI-1 renal): > 100 µM | TGI (COLO 205 colon): > 100 µM | TGI (DU-145 prostate): 18.2 µM | TGI (EKVX NSCLC): 6.12 µM | TGI (HCC-2998 colon): 20.5 µM | TGI (HCT-116 colon): 14 µM | TGI (HCT-15 colon): 19.8 µM | TGI (HL-60(TB) leukemia): > 100 µM | TGI (HOP-62 NSCLC): 59 µM | TGI (HOP-92 NSCLC): > 100 µM | TGI (HS 578T breast): 77.7 µM | TGI (HT29 colon): 18.8 µM | TGI (IGROV1 ovarian): 24.2 µM | TGI (K-562 leukemia): 60.8 µM | TGI (KM12 colon): > 100 µM | TGI (LOX IMVI melanoma): 15.8 µM | TGI (M14 melanoma): > 100 µM | TGI (MALME-3M melanoma): 57.7 µM | TGI (MCF7 breast): 20.3 µM | TGI (MDA-MB-231 breast): 55.5 µM | TGI (MDA-MB-435): 60.3 µM | TGI (MDA-N): > 100 µM | TGI (MOLT-4 leukemia): 16.8 µM | TGI (NCI-H226 lung): 13.2 µM | TGI (NCI-H23 lung): 48.7 µM | TGI (NCI-H460 lung): 13.8 µM | TGI (NCI-H522 lung): 17.1 µM | TGI (NCI/ADR-RES ovarian): 22 µM | TGI (OVCAR-3 ovarian): 17.1 µM | TGI (OVCAR-4 ovarian): 47.4 µM | TGI (OVCAR-5 ovarian): 61 µM | TGI (OVCAR-8 ovarian): 16 µM | TGI (PC-3 prostate): > 100 µM | TGI (RPMI-8226 leukemia): 84.4 µM | TGI (SF-268 CNS): 39 µM | TGI (SF-295 CNS): 18.3 µM | TGI (SF-539 CNS): 6.8 µM | TGI (SK-MEL-2 melanoma): 47 µM | TGI (SK-MEL-28 melanoma): 6.79 µM | TGI (SK-MEL-5 melanoma): 15 µM | TGI (SK-OV-3 ovarian): > 100 µM | TGI (SN12C renal): 36.3 µM | TGI (SNB-19 CNS): 60.1 µM | TGI (SNB-75 CNS): 79.2 µM | TGI (SR leukemia): > 100 µM | TGI (SW-620 colon): > 100 µM | TGI (T-47D breast): 24 µM | TGI (U251 CNS): 16.9 µM | TGI (UACC-257 melanoma): 11.1 µM | TGI (UO-31 renal): 7.47 µM
